Data reported in US7049331B2, “1,2,4-thiadiazole derivatives as melanocortin receptor modulators” (Ortho-McNeil Pharmaceutical, Inc., priority 2001, dated 2006).

Tests used:
[1] = target: T1, melanocortin MC-4 receptor (Homo sapiens, UniProt P32245); experiment: Melanocortin MC-4 Receptor Binding Assay (SPA)
T1 construct: purchased Receptor Biology Inc
Procedure, shortened: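 Membranes bound to WGA SPA beads were incubated 16 h at 25° C with 40 pM ¹²⁵I-NDP-MSH and test compound (1 mM stock in 30% DMSO-HEPES pH 7.4). Nonspecific binding set with 1 μM NDP-MSH or α-MSH; percent inhibition from bound cpm.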

human sebocytes [2] = experiment: Nile red evaluation of lipid accumulation in sebocytes; assay type: cell-based; conditions: for inhibition at 0.4 µM: read-out: % Inh 0.4 μM (lipid accumulation, Nile red); for inhibition at 0.8 µM: read-out: % Inh 0.8 μM (lipid accumulation, Nile red)
Procedure: The cells were incubated at 37° C. for 24 hours prior to their use as a feeder layer for sebocytes. Human sebocytes were isolated from Dermatome shavings of postoperative pieces of human skin at 0.4-0.8 mm depths (this part of the skin was previously shown to be enriched in sebaceous glands). […] This medium was changed every 3 days (Phase III). Hormones, mixture of hormones i.e. bovine pituitary extract or compounds to be tested were added to the culture at the beginning of phase III. […] The evaluation of lipid accumulation completed using the Nile red method. This method relies on visualization of neutral lipids by Nile red and quantitation by reading of fluorescence at 535 nm excitation, 580 nm emission using a plate reader. The lipid synthesis was evaluated by radioactive labeling using ^14C acetate and quantified by Bio Rad Phosphoimager (Molecular Imager, FX) using 4.1 Software. […] Quantitation of accumulation/inhibition of neutral lipids in sebocytes was accomplished by Nile red binding assay. Briefly, following exposure of sebocytes to test compounds, the cells were allowed to interact with 1 μM Nile red in Hanks buffered saline solution containing DMSO and Pluronic F127. After 4 hours of incubation, washing and incubation overnight, the fluorescence was read at 535 excitation and 580 emission using a fluorescence plate reader. […] Following the procedure described above, select compounds of the present invention were tested for visual and Nile red evaluation of lipid accumulation, with results as listed in Table 9.

human sebocytes [3] = experiment: Visual observation of lipid granule formation in sebocytes; assay type: cell-based
Procedure: Semiconfluent cultures of 3T3 mouse fibroblasts (Swiss Albino mouse, ATCC CCL-92) were treated with mitomycin C (4 μg/ml) for 3 hours, trypsinized and seeded at a density of 2.5×10^5/9.5 cm^2 tissue culture plate in Dulbeccos Minimal Essential Medium (DMEM) containing 10% Colorado Calf Serum, PNC (100U/ml), STM (100 μg/ml), L glutamine (0.3 mg/ml), sodium pyruvate (1 mM) and nonessential amino acids (100 μM). The cells were incubated at 37° C. for 24 hours prior to their use as a feeder layer for sebocytes.
Human sebocytes were isolated from Dermatome shavings of postoperative pieces of human skin at 0.4–0.8 mm depths (this part of the skin was previously shown to be enriched in sebaceous glands). Shavings so obtained were treated with 1% Dispase in Iscoves medium containing 10% serum for 20 min at 37° C. The tissue was then placed in 0.3% trypsin/1% EDTA in Phosphate Buffered Saline (PBS) for 10 minutes at 37° C. Following this incubation the cells were gently scraped from the tissue in Growth medium (GM) containing DMEM/F12 media mixture (3:1), supplemented with 8% heat inactivated FBS, 2% heat inactivated human serum (HS), 1 mM sodium pyruvate, epidermal growth factor (10 ng/ml), insulin (10 μg/ml), hydrocortisone (0.4 μg/ml) and +/−cholera toxin (100 μg/ml), L-glutamine and antibiotics. Cells so obtained were filtered through nylon mesh ([…]), centrifuged at 750 RPM, re-suspended in GM and counted.
Resultant cells from the above isolation procedure were plated on the 3T3 feeder layers at 2×10^5/9.5 cm^2 in growth medium and maintained at 37° C. and 5% CO2 for 3 days (Phase I). Following the initial growth period they were transferred to a transition medium (TM) that consisted of DMEM/F12 media supplemented with 1 mM sodium pyruvate, insulin ([…]), transferrin ([…]) and selenium (5.5 μg/ml) (ITS), 2% heat inactivated FBS and 2% heat inactivated human serum as well as +/−cholera toxin (ch.t.) (100 μg/ml), L-glutamine and antibiotics (Phase II). Three days later the cells were changed to differentiation medium (DM), DMEM/F12 supplemented with ITS, 3,3′,5-triido-L-thyronine sodium (3 nM), 1%(v/v) trace element mix and the choice of differentiation agent i.e. bovine pituitary extract (10 μg/ml). This medium was changed every 3 days (Phase III).
Hormones, mixture of hormones i.e. bovine pituitary extract or compounds to be tested were added to the culture at the beginning of phase III. Two criteria were used to evaluate the effect of these materials on sebaceous cultures: 1) visual observations and 2) evaluation of sebaceous lipid accumulation and synthesis. The evaluation of lipid accumulation completed using the Nile red method. This method relies on visualization of neutral lipids by Nile red and quantitation by reading of fluorescence at 535 nm excitation, 580 nm emission using a plate reader. The lipid synthesis was evaluated by radioactive labeling using ^14C acetate and quantified by Bio Rad Phosphoimager (Molecular Imager, FX) using 4.1 Software.
Quantitation of accumulation/inhibition of neutral lipids in sebocytes was accomplished by Nile red binding assay. Briefly, following exposure of sebocytes to test compounds, the cells were allowed to interact with 1 μM Nile red in Hanks buffered saline solution containing DMSO and Pluronic F127. After 4 hours of incubation, washing and incubation overnight, the fluorescence was read at 535 excitation and 580 emission using a fluorescence plate reader.
Following the procedure described above, select compounds of the present invention were tested for visual and Nile red evaluation of lipid accumulation, with results as listed in Table 9.
Following the procedure described above, select compounds of the present invention were tested for their inhibitory effect on differentiation of human sebocytes. […]

MC5-R = MC5-R (Homo sapiens, UniProt P33032); experiment: MC5-R binding
Chain of MC5-R (P33032 whole entry): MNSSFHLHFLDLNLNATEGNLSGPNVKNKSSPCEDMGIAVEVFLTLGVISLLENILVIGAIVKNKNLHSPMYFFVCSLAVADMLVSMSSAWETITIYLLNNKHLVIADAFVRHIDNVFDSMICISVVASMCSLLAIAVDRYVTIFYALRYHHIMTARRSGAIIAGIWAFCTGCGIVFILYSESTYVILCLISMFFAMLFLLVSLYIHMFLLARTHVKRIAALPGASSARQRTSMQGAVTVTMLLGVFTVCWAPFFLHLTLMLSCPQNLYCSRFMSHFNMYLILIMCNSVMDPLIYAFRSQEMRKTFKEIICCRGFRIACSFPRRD

T1 sequence (P32245 whole entry): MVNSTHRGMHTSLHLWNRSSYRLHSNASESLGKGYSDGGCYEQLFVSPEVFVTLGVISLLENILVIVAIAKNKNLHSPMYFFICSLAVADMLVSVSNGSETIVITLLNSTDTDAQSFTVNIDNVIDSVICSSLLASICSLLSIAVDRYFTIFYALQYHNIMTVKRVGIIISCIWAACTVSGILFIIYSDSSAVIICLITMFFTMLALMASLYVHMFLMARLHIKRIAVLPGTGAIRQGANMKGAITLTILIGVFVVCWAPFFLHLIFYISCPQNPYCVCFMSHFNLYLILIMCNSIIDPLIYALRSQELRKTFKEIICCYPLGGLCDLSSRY

SMILES | IC50 [1] | inhibition at 0.4 µM (human sebocytes [2]) | inhibition at 0.8 µM (human sebocytes [2]) | Visual* 0.4 μM (inhibition of lipid granule formation) (human sebocytes [3]) | Visual* 0.8 μM (inhibition of lipid granule formation) (human sebocytes [3]) | lipid granules in sebocyte cultures (visual, stained cultures) (human sebocytes [3]; seven day treatment) | IC50 (MC5-R) | MC5-R IC50 (MC5-R)
COc1ccccc1-[n+]1sc(Nc2ccc(C)cc2)nc1-c1ccccc1.[Br-] [Compound 31, 2-(2-methoxyphenyl)-3-phenyl-5-p-tolylamino-[1,2,4]thiadiazol-2-ium] | 22 nM |  |  |  |  |  |  | 
COc1ccccc1-c1nc(Nc2ccccc2)s[n+]1-c1ccccc1OC.[Br-] [Compound 74, 2-(2-methoxyphenyl)-3-(2-methoxyphenyl)-5-phenylamino-[1,2.4]thiadiazol-2-ium] | 194 nM | 72% | 100% | +++ (+++ = 75%) | ++++ (++++ = 100%) | complete disappearance of lipid granules | 0.154 µM | 
COc1ccc(N(C)c2nc(-c3ccccc3)[n+](-c3ccc(C)cc3)s2)cc1 [Compound 50] | 30000 nM | 0% | 0% | 0 | 0 |  |  | No binding
c1ccc(CNc2nc(-c3ccccc3)[n+](-c3ccccc3)s2)cc1 [Compound 84] |  | 0% | 0% | 0 | 0 |  |  | No binding
